Assay results: ChEMBL document CHEMBL2375251, “Anticancer activity of novel hybrid molecules containing 5-benzylidene thiazolidine-2,4-dione” (Eur J Med Chem, 2013)

Key:
Format in all cases: functional, cell-based
[1] = test system: FM3A; test: Cytotoxicity against mouse FM3A cells after 2 days by Coulter counter analysis; details: 48 h
[2] = test system: HeLa; test: Cytotoxicity against human HeLa cells after 4 days by Coulter counter analysis; details: 96 h
[3] = test system: CCRF-CEM; test: Cytotoxicity against human CEM cells after 3 days by Coulter counter analysis; details: 72 h
[4] = test system: L1210; test: Cytotoxicity against mouse L1210 cells after 2 days by Coulter counter analysis; details: L1210, 48 h

Row | SMILES | IC50 [1] | IC50 [2] | IC50 [3] | IC50 [4]
1 | Nc1ccc(/C=C2\SC(=O)N(Cc3ccccc3)C2=O)cc1 | 24 µM | 46 µM | 42 µM | 38 µM
2 | Nc1cccc(/C=C2\SC(=O)N(Cc3ccc(Cl)cc3)C2=O)c1 | 246 µM | > 250 µM | > 250 µM | 218 µM
3 | C=C(Br)C(=O)Nc1ccc(/C=C2\SC(=O)N(Cc3cccc(F)c3)C2=O)cc1 | 4 µM | 5.9 µM | 3.2 µM | 1.2 µM
4 | Nc1ccc(/C=C2\SC(=O)N(CCc3ccccc3)C2=O)cc1 | 215 µM | > 250 µM | > 250 µM | 217 µM
5 | CN1C(=O)S/C(=C\c2ccc(N)cc2)C1=O | 107 µM | 97 µM | 62 µM | 99 µM
6 | Cc1ccc(CN2C(=O)S/C(=C\c3ccc(N)cc3)C2=O)cc1 | > 250 µM | > 250 µM | > 250 µM | 94 µM
7 | C=C(Br)C(=O)Nc1ccc(/C=C2\SC(=O)N(CC)C2=O)cc1 | 2.3 µM | 1.4 µM | 0.87 µM | 0.5 µM
8 | Nc1ccc(/C=C2\SC(=O)N(Cc3cccc(Cl)c3)C2=O)cc1 | 10 µM | 24 µM | 18 µM | 4.7 µM
9 | Nc1cccc(/C=C2\SC(=O)N(Cc3cccc(Cl)c3)C2=O)c1 | 164 µM | 250 µM | 195 µM | 211 µM
10 | CC(C)(C)c1ccc(CN2C(=O)S/C(=C\c3ccc(N)cc3)C2=O)cc1 | 80 µM | 53 µM | 66 µM | 94 µM
11 | CCN1C(=O)S/C(=C\c2ccc(N)cc2)C1=O | 76 µM | 108 µM | 91 µM | 82 µM
12 | Nc1ccc(/C=C2\SC(=O)N(Cc3ccc(C(F)(F)F)cc3)C2=O)cc1 | 134 µM | 96 µM | 32 µM | 6 µM
13 | Nc1cccc(/C=C2\SC(=O)N(Cc3ccc(C(F)(F)F)cc3)C2=O)c1 | > 250 µM | > 250 µM | > 250 µM | > 250 µM
14 | Cc1ccc(CN2C(=O)S/C(=C\c3cccc(N)c3)C2=O)cc1 | 158 µM | 98 µM | > 250 µM | 176 µM
15 | Nc1cccc(/C=C2\SC(=O)N(CCc3ccccc3)C2=O)c1 | 68 µM | 250 µM | 106 µM | 142 µM
16 | Nc1cccc(/C=C2\SC(=O)N(Cc3ccccc3)C2=O)c1 | > 250 µM | > 250 µM | > 250 µM | 233 µM
17 | Nc1ccc(/C=C2\SC(=O)N(Cc3cccc(F)c3)C2=O)cc1 | 121 µM | 250 µM | 116 µM | 100 µM
18 | CC(C)(C)c1ccc(CN2C(=O)S/C(=C\c3cccc(N)c3)C2=O)cc1 | 188 µM | 145 µM | 165 µM | 223 µM
19 | Nc1ccc(/C=C2\SC(=O)N(Cc3ccc(Cl)cc3)C2=O)cc1 | 60 µM | 77 µM | 87 µM | 37 µM

Row | SMILES | IC50 [1] | IC50 [2] | IC50 [3] | IC50 [4]
20 | C=C(Br)C(=O)Nc1cccc(/C=C2\SC(=O)N(Cc3cccc(Cl)c3)C2=O)c1 | 1.7 µM | 2.5 µM | 1.4 µM | 1.1 µM
21 | C=C(Br)C(=O)Nc1cccc(/C=C2\SC(=O)N(Cc3ccc(C)cc3)C2=O)c1 | 1 µM | 1.2 µM | 1.2 µM | 0.6 µM
22 | C=C(Br)C(=O)Nc1cccc(/C=C2\SC(=O)N(Cc3ccc(C(C)(C)C)cc3)C2=O)c1 | 5.2 µM | 2.8 µM | 3 µM | 3.2 µM
23 | Nc1cccc(/C=C2\SC(=O)N(Cc3cccc(F)c3)C2=O)c1 | > 250 µM | > 250 µM | 250 µM | 199 µM
24 | C=C(Br)C(=O)Nc1ccc(/C=C2\SC(=O)N(Cc3ccc(C(C)(C)C)cc3)C2=O)cc1 | 4 µM | 2.7 µM | 0.83 µM | 1.6 µM
25 | C=C(Br)C(=O)Nc1ccc(/C=C2\SC(=O)N(CCc3ccccc3)C2=O)cc1 | 5.5 µM | 4.5 µM | 4.2 µM | 2.9 µM
26 | N[C@@H](Cc1ccc(N(CCCl)CCCl)cc1)C(=O)O [MELPHALAN] | 3.6 µM | – | 3.5 µM | –
27 | Nc1ccc(/C=C2\SC(=O)N(Cc3ccc(F)cc3)C2=O)cc1 | 36 µM | 186 µM | 111 µM | 24 µM
28 | C=C(Br)C(=O)Nc1ccc(/C=C2\SC(=O)N(C)C2=O)cc1 | 0.75 µM | 0.87 µM | 0.36 µM | 0.19 µM
29 | C=C(Br)C(=O)Nc1ccc(/C=C2\SC(=O)N(Cc3ccc(Cl)cc3)C2=O)cc1 | 5.1 µM | 2.3 µM | 2.8 µM | 3.4 µM
30 | C=C(Br)C(=O)Nc1cccc(/C=C2\SC(=O)N(Cc3ccc(Cl)cc3)C2=O)c1 | 1.6 µM | 2.7 µM | 1.4 µM | 0.94 µM
31 | C=C(Br)C(=O)Nc1ccc(/C=C2\SC(=O)N(Cc3ccc(F)cc3)C2=O)cc1 | 4.6 µM | 2 µM | 2.4 µM | 2.2 µM
32 | C=C(Br)C(=O)Nc1cccc(/C=C2\SC(=O)N(Cc3cccc(F)c3)C2=O)c1 | 0.69 µM | 2.7 µM | 0.69 µM | 0.59 µM
33 | C=C(Br)C(=O)Nc1ccc(/C=C2\SC(=O)N(Cc3ccc(C(F)(F)F)cc3)C2=O)cc1 | 23 µM | 13 µM | 8 µM | 12 µM
34 | C=C(Br)C(=O)Nc1cccc(/C=C2\SC(=O)N(CCc3ccccc3)C2=O)c1 | 2.2 µM | 3.5 µM | 0.94 µM | 1.3 µM
35 | Nc1cccc(/C=C2\SC(=O)N(Cc3ccc(F)cc3)C2=O)c1 | 140 µM | 86 µM | 87 µM | 142 µM
36 | C=C(Br)C(=O)Nc1ccc(/C=C2\SC(=O)N(Cc3ccc(C)cc3)C2=O)cc1 | 6.1 µM | 8.9 µM | 3.7 µM | 3.4 µM
37 | C=C(Br)C(=O)Nc1ccc(/C=C2\SC(=O)N(Cc3ccccc3)C2=O)cc1 | 3 µM | 1 µM | 2.3 µM | 1.1 µM
38 | C=C(Br)C(=O)Nc1ccc(/C=C2\SC(=O)N(Cc3cccc(Cl)c3)C2=O)cc1 | 6.1 µM | 8.9 µM | 3.7 µM | 3.4 µM
